This is an account of results in PubChem BioAssay (NCI).

Assay in all cases: growth of human tumour cells (NCI), 48 h
Assay [1] relates to EKVX NSCLC.
In assay [2] the test system is HOP-62 NSCLC.
Assay [3] deals with M14 melanoma.
In assay [4] the test system is MOLT-4 leukemia.
The test system of assay [5] is NCI/ADR-RES ovarian.
Assay [6] has as its system OVCAR-8 ovarian.
In assay [7] the test system is RXF 393 renal.
For assay [8], the system named is SK-MEL-5 melanoma.

SMILES strings stand for the structures. “And” between values parts separate entries of the source, which are not always exact repeats. Identical values can stand only once.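 48-hour exposure; five concentrations; linearly interpolated endpoints. GI50 marks 50% less growth. TGI: concentration producing complete growth inhibition.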

In the case of `CCOC(=O)c1c2c(n3ccccc13)C(=O)c1ncccc1C2=O`, the GI50 in assay [1] was 1.13 µM; in assay [2] it was 0.0777 µM; in assay [3] it was 0.0354 µM; in assay [4], 2.43 µM; in assay [5], 0.0348 µM; in assay [6] it was 0.0581 µM. The GI50 in assay [7] is 0.0792 µM; in assay [8] it was 0.142 µM. Further, the TGI in assay [1] turned out to be 19.3 µM; in assay [2], 8.86 µM; in assay [3], 2.94 µM; in assay [4] it was 76.8 µM; in assay [5], 3.09 µM; in assay [6], 6 µM. Also, the TGI in assay [7] amounted to 13.9 µM; in assay [8], 1.51 µM.

Regarding `Cc1cnc(C(=O)NNc2nc3sc4c(c3c(=O)n2C)C(C)CCC4)cn1` (stereo not given), the GI50 in assay [1] was 0.292 µM; in assay [2] it was 0.304 µM; in assay [3], 0.284 µM; in assay [4], 0.346 µM; in assay [5], 0.392 µM; in assay [6], 0.366 µM. Further, the figures for the GI50 in assay [7] and in assay [8] were 0.926 µM and 0.363 µM, respectively. Besides, the TGI in assay [1] amounted to 9.13 µM; in assay [2], 5.65 µM; in assay [3], 2.43 µM; in assay [5], 10.8 µM; in assay [6], 11.9 µM; in assay [7], 3.6 µM. In addition, in assay [8], the TGI worked out at 1.72 µM.

On to `Cc1cnc(C(=O)Nc2nc3ccc(S(=O)(=O)Nc4ccc(C5(C(F)(F)F)CC5)cc4)cc3[nH]2)cn1`, for which the GI50 in assay [1] was 0.701 µM; in assay [2], 0.622 µM; in assay [3], 0.328 µM; in assay [4], 0.501 µM; in assay [5], 0.26 µM; in assay [6], 0.722 µM. Moreover, the GI50 in assay [7] was 0.226 µM; in assay [8], 0.232 µM. Also, the TGI in assay [1] stood at 9.34 µM; in assay [2], 6.71 µM; in assay [3], 2.74 µM; in assay [4], 14.5 µM; in assay [5], 1.69 µM; in assay [6] it was 23.4 µM. Further, the TGI in assay [7] was determined as 1.11 µM; in assay [8], 3.85 µM.

For the compound `C=C1CC2(OC1=O)C(=O)Nc1ccccc12` (stereo not given), the GI50 in assay [1] is 13.5 µM; in assay [2], 12.6 µM; in assay [3] it was 2.71 µM; in assay [4], 2 µM; in assay [5], 2.86 µM; in assay [6], 2.91 µM. The GI50 in assay [7] is 1.45 µM; in assay [8] it was 6.13 µM. Moreover, the TGI in assay [1] was 26.7 µM; in assay [2] it was 29.6 µM; in assay [3] it was 10 µM; in assay [4], 5.98 µM; in assay [5], 11.2 µM; in assay [6], 11 µM. The TGI in assay [7] came out at 2.9 µM; in assay [8] it was 18.8 µM.

For `C=C(Br)CNC(=O)CCC(=O)NCC(=C)Br`, the TGI in assay [1], in assay [2], in assay [3], in assay [4], in assay [5] and in assay [6] was above 100 µM throughout. The TGI in assay [7] and in assay [8] was above 100 µM throughout.

Turning to `CO/N=C(\C)CCC#Cc1ccccc1C(=O)OC`, the TGI in assay [1], in assay [2], in assay [3], in assay [4], in assay [5] and in assay [6] was above 10 µM in each case. For the same compound, the TGI in assay [7] and in assay [8] was above 10 µM in each case.

Turning to `O=C(O)C1CC(O)CN1` (stereo not given), the TGI in assay [1], in assay [2], in assay [3], in assay [4], in assay [5] and in assay [6] was above 100 µM throughout. Further, the TGI in assay [7] and in assay [8] was above 100 µM each time.

For the compound `Cc1cn(-c2cc(NC(=O)c3ccc(C)c(Nc4nccc(-c5cccnc5)n4)c3)cc(C(F)(F)F)c2)cn1`, the GI50 in assay [1] is 6.23 µM and 5.98 µM; in assay [2], > 10 µM and 8.92 µM; in assay [3], 1.66 µM and 1.45 µM; in assay [4], 3.21 µM and 1.6 µM; in assay [5] it was 5.72 µM and 2.5 µM; in assay [6] it was 4.43 µM and 4.29 µM. Further, the GI50 was 2.59 µM and 2.01 µM in assay [7]; 1.73 µM in assay [8]. The TGI is > 10 µM and 26.1 µM in assay [1]; > 10 µM and 26.3 µM in assay [2]; 5.91 µM and 4.87 µM in assay [3]; above 37.2 µM in assay [4]; > 10 µM and 16.1 µM in assay [5]; > 10 µM and 24.8 µM in assay [6]. Besides, the TGI in assay [7] is 6.54 µM and 4.12 µM; in assay [8], 7.01 µM.

Consider `COc1cc(-c2nc(SCCC(C)C)nc(Nc3ccc(S(N)(=O)=O)cc3)c2C#N)cc(OC)c1OC`, for which the GI50 in assay [1] was 3.42 µM; in assay [2] it was 4.12 µM; in assay [3], 2.9 µM; in assay [4], 2.39 µM; in assay [5], 3.03 µM; in assay [6], 4 µM. Also, the GI50 in assay [7] was 1.83 µM; in assay [8] it was 1.59 µM. The TGI was above 100 µM in assay [1]; above 100 µM in assay [2]; 24.7 µM in assay [3]; above 100 µM in assay [4]; above 100 µM in assay [5]; above 100 µM in assay [6]. Further, the TGI in assay [7] worked out at 3.97 µM; in assay [8] it was 3.01 µM.

Consider `CCCCCCCc1cc2c3c(nc4ccccc42)C(=O)c2cccnc2-c3n1`, for which the GI50 is 4.5 µM in assay [1]; 7.14 µM in assay [2]; 2.5 µM in assay [3]; 1.54 µM in assay [4]; 4.33 µM in assay [5]; 5.41 µM in assay [6]. Also, the GI50 in assay [7] is 5.67 µM; in assay [8], 4.16 µM. The TGI in assay [1] was 9.14 µM; in assay [2] it was 20 µM; in assay [3] it was 6.9 µM; in assay [4], above 20.2 µM; in assay [5], 12.6 µM; in assay [6] it was 16.6 µM. Moreover, the TGI came out at 11.1 µM in assay [7] and 8.37 µM in assay [8].
